Where “and” joins values, the source holds several entries; their conditions need not be identical. Equal entries are not always repeated.
Experiments:
Lysine--tRNA ligase = Lysine--tRNA ligase (Plasmodium falciparum (isolate 3D7), UniProt Q8IDJ8); experiment: Pf-KRS-1 (Lysyl-RNA Synthetase-1, KRS-1, cytosolic KRS) from Plasmodium falciparum. Inhibitor assay, 384 well plate, luminescence read.; format: functional
Histidine--tRNA ligase [1] = target: T1, Histidine--tRNA ligase (Leishmania infantum, UniProt A4I591); experiment: Leishmania infantum Histidine tRNA synthetase (LdHisRS); format: functional
T1 sequence (A4I591 whole entry): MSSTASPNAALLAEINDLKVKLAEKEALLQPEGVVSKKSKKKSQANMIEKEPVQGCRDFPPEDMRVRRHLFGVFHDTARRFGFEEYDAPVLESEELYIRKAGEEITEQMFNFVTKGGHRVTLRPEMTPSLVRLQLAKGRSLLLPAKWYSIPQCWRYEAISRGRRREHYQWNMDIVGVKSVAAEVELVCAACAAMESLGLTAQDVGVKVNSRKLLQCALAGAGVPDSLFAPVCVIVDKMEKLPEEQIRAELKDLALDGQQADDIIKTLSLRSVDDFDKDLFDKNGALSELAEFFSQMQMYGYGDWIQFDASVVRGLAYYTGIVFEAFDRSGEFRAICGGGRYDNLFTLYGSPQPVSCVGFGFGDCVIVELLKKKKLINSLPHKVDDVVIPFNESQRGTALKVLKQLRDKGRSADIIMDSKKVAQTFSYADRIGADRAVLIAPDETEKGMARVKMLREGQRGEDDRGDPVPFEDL

Histidine--tRNA ligase [2] = target: T2, Histidine--tRNA ligase (Trypanosoma cruzi (strain CL Brener), UniProt Q4DA54); experiment: Trypanosoma cruzi histidyl tRNA synthetase (Tc-HisRS); format: functional
T2 sequence (Q4DA54 whole entry): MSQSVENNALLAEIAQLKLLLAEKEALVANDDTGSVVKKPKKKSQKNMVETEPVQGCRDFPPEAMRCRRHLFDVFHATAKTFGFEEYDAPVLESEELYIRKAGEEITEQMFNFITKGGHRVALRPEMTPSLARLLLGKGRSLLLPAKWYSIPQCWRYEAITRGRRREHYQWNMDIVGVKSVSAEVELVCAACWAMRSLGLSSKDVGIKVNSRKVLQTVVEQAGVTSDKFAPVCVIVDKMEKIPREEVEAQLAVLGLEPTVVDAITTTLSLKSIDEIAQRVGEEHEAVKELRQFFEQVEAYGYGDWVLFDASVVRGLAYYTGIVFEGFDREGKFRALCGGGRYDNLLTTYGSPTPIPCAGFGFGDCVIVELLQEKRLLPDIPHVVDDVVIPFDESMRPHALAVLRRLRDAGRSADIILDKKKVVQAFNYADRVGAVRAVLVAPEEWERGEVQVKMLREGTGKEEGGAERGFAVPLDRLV

[3] = target: T3, Ubiquitin-activating enzyme e1, putative (Leishmania donovani (strain BPK282A1), UniProt E9BSI1); experiment: Leishmania donovani Ubiquitin Activating Enzyme (LdE1); format: functional
T3 sequence (E9BSI1 whole entry): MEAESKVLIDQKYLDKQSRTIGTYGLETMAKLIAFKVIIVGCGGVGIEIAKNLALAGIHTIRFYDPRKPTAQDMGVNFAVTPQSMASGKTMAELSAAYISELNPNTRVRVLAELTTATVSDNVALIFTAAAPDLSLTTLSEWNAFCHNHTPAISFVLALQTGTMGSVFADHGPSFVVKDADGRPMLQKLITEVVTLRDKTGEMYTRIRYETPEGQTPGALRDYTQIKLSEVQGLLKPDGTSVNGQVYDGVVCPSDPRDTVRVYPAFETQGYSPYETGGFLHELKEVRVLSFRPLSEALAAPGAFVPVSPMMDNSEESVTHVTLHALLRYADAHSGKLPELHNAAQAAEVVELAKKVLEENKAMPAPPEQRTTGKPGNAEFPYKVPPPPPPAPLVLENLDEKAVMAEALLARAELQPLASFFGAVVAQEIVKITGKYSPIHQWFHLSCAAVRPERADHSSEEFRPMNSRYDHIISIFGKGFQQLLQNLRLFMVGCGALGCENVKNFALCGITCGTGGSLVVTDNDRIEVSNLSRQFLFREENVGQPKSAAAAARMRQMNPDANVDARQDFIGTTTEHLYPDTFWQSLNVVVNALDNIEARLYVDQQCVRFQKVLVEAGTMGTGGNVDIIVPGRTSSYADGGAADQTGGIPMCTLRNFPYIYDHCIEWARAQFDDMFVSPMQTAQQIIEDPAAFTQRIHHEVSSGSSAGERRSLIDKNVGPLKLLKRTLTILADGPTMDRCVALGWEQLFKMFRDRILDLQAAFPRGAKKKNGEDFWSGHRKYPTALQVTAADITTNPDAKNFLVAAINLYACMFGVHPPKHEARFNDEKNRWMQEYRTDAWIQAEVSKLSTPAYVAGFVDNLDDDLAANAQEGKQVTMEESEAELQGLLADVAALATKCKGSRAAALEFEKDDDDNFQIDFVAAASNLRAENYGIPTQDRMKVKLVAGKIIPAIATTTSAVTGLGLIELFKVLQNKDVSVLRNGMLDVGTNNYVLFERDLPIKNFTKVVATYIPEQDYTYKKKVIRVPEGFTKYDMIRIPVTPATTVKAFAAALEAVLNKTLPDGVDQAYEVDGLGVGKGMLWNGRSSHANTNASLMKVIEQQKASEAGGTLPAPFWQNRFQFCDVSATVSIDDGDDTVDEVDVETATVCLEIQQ

Trypanosoma brucei = experiment: Trypanosoma brucei 72 hour study; format: functional, organism-based; details: for IC50: Trypanosoma brucei, 72 h
[4] = target: Polyketide synthase Pks13 (Mycobacterium tuberculosis (strain ATCC 25618 / H37Rv), UniProt I6X8D2); experiment: Mycobacterium tuberculosis Polyketide synthase 13 Thioesterase (PKS13); format: functional
Sequence of Polyketide synthase Pks13 (I6X8D2 whole entry): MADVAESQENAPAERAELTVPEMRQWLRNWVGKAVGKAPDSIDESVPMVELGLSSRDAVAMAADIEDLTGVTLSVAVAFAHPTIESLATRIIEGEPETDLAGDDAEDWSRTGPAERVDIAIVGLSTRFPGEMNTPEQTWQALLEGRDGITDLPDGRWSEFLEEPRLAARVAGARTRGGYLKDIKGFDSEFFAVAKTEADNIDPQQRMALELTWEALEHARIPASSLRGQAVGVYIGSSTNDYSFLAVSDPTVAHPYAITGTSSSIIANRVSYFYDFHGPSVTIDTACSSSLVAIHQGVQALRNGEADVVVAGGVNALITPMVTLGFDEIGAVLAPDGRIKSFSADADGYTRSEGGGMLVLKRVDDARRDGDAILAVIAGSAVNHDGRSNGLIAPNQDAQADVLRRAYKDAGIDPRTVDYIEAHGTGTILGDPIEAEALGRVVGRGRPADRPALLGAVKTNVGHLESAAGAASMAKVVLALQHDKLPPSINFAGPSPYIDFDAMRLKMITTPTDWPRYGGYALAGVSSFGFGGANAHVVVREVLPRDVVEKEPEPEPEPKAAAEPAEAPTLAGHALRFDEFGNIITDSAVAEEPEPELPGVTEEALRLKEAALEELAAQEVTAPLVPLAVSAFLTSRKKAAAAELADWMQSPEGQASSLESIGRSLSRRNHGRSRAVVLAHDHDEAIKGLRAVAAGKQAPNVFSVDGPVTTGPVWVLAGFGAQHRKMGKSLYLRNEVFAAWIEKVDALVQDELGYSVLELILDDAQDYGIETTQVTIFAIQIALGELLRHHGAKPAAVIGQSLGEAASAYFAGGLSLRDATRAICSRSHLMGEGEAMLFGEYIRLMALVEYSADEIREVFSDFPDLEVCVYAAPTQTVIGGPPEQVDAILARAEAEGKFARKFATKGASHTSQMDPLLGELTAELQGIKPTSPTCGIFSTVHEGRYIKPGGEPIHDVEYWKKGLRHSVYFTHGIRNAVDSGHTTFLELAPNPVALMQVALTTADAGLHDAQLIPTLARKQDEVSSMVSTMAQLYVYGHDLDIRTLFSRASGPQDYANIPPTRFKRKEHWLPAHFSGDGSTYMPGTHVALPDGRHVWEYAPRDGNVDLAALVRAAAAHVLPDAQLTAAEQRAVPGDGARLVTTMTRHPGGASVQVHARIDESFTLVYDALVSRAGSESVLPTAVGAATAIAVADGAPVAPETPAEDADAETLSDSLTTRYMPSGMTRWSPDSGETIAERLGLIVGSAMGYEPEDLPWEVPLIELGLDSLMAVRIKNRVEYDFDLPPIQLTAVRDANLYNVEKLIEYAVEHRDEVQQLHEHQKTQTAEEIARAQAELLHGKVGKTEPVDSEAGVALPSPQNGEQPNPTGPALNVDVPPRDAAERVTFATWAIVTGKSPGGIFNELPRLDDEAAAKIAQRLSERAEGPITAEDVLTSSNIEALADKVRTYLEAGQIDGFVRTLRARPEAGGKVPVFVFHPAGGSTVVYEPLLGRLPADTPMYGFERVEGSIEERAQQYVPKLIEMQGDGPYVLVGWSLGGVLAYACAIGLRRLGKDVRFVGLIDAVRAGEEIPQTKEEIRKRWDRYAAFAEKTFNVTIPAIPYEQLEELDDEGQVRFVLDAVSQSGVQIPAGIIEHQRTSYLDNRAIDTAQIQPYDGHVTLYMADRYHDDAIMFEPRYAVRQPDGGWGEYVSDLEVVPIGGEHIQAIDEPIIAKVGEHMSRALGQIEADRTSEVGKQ

Plasmodium falciparum = experiment: Calibr Malaria Delayed Death Assay SOP; format: functional, organism-based; details: for IC50: Plasmodium falciparum
[5] = microbe, parasite or virus in culture; details: Mycobacterium tuberculosis, 72 h, read-out: pIC50 (converted)
[6] = microbe, parasite or virus in culture; details: Mycobacterium tuberculosis, 96 h, read-out: pIC50 (converted)
[7] = tested on: Mycobacterium tuberculosis; experiment: Cornell M. t heat shock assay; format: functional, organism-based; details: Mycobacterium tuberculosis
[8] = target: T4, Coenzyme A biosynthesis bifunctional protein CoaBC (Mycobacterium tuberculosis (strain ATCC 25618 / H37Rv), UniProt P9WNZ1); experiment: Biomol Green assay for MtCoaBC inhibitor, OD650 read; format: functional
T4 sequence (P9WNZ1 whole entry): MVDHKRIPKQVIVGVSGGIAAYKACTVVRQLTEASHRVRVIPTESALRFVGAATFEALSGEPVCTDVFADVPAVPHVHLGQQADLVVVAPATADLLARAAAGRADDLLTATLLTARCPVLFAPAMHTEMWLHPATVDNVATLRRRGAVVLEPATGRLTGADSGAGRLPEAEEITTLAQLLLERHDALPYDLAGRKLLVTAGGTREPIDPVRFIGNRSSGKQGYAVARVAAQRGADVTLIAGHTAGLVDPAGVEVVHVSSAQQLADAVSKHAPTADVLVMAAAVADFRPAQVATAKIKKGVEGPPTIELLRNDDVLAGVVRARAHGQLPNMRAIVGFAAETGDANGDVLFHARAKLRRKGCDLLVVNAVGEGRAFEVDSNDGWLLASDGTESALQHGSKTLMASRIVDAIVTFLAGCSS

ClpP1P2 = ClpP1P2 (Mycobacterium tuberculosis (strain ATCC 25618 / H37Rv), UniProt P9WPC3+P9WPC5); experiment: in vitro assay to detect presence of AMC directly proportional to the activity of ClpP1P2. GHDDI collaboration.; format: functional
Sequence of ClpP1P2 (P9WPC5 whole entry): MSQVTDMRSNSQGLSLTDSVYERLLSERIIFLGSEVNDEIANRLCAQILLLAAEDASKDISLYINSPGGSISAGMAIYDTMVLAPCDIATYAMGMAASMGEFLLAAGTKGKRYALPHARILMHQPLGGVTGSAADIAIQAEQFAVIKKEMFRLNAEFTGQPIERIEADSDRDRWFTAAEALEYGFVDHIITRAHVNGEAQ
Sequence of ClpP1P2 (P9WPC3 whole entry): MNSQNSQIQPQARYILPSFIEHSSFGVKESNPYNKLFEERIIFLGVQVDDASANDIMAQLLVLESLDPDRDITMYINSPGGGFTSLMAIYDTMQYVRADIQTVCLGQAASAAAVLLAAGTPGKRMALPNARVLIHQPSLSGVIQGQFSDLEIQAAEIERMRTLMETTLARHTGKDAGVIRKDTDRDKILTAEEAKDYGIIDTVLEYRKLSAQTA

[9] = In vitro enzyme assay to detect hydrolysis of chlorophenol red-beta-D-[…] directly proportional to the number of Toxoplasma stably expressing beta-galactosidase; format: functional, organism-based, Toxoplasma gondii; details: Toxoplasma gondii

Sequence of Lysine--tRNA ligase (Q8IDJ8 whole entry): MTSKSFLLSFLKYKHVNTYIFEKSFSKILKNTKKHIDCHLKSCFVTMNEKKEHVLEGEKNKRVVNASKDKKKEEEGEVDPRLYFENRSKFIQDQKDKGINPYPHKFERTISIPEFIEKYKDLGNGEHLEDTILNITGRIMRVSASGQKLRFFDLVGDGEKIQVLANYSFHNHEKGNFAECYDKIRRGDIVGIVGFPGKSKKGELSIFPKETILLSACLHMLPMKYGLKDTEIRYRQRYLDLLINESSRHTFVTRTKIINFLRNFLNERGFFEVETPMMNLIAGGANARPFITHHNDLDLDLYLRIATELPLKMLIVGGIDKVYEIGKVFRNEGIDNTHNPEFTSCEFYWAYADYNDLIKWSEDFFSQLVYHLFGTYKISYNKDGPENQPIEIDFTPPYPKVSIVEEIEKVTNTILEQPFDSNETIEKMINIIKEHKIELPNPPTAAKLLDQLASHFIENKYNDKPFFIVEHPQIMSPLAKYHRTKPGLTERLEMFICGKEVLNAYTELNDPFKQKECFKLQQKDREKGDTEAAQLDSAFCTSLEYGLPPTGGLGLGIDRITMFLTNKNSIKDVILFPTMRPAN

| SMILES | IC50 (Lysine--tRNA ligase) [µM] | IC50 (Histidine--tRNA ligase [1]) | IC50 (Histidine--tRNA ligase [2]) | other results |
| --- | --- | --- | --- | --- |
| COc1cccn(CC(=O)N2CCC3(CCNCC3)C2)c1=O | > 50.1 | 3.66 µM and 3.72 µM | 6.27 µM and 15.2 µM | – |
| Cn1cc(NC(=O)N2CCC2c2ccccc2)ccc1=O (stereo not given) | > 50.1 | 7.08 µM and 6.57 µM | 27.5 µM and 31.2 µM | IC50 [3]: > 100 µM |
| Cc1cccc(CN2CCCCC2c2n[nH]cc2-c2cc(C)no2)c1.Cl (stereo not given) | – | – | – | pIC50 (Trypanosoma brucei): 4.638 and 4.693; IC50 (Trypanosoma brucei): 19.8 µM |
| Cc1cnc(N2CCC3(CCN(CC4CC4)C3=O)CC2)nc1 | – | – | > 100 µM | IC50 [4]: > 100 µM |
| COc1ccc(C)cc1CN1CCC(c2cc3ncccc3cn2)CC1.Cl | – | 17.6 µM and 23.6 µM | 14.5 µM and 14.6 µM | pIC50 (Plasmodium falciparum): 6.624; IC50 (Plasmodium falciparum): 0.264 µM; IC50 [5]: 19.4 µM; IC50 [6]: 25.8 µM |
| Cl.Fc1cccc(CN2CCC(c3cc4ncccc4cn3)CC2)c1F | – | – | 28.5 µM and 56.4 µM | pIC50 (Plasmodium falciparum): 6.161; IC50 (Plasmodium falciparum): 0.897 µM; IC50 [7]: 43.3 µM |
| CCCn1cc(NC(=O)c2ccc(S(=O)(=O)CC)cc2)ccc1=O | > 50.1 | 1.47 µM and 1.05 µM and 2.81 µM and 2.06 µM | 2.37 µM and 2.75 µM | – |
| Cc1cc(=O)n(C)cc1NC(=O)Cc1cccc(F)c1 | > 50.1 | 7.6 µM and 8.67 µM | 6.21 µM | – |
| O=C(NCCc1coc(-c2ccc(F)cc2)n1)NC1CC1 | – | – | – | pIC50 (Trypanosoma brucei): 5.662 and 5.643; IC50 (Trypanosoma brucei): 2.17 µM |
| CNc1cc(-c2ccccc2CN)c2cc[nH]c2n1 | – | 10.6 µM and 10.1 µM | 22.6 µM and 37.8 µM | IC50 [8]: > 30.2 µM |
| CNc1cc(-c2cccc(CN)c2)c2cc[nH]c2n1 | – | 25.1 µM and 23.5 µM | 27.7 µM and 26.3 µM | IC50 (ClpP1P2): > 100 µM |
| Cn1cc(NC(=O)N2CCCC2c2ccccn2)ccc1=O (stereo not given) | > 50.1 | 2.71 µM and 1.57 µM and 2.82 µM and 1.51 µM | 9.32 µM and 9.24 µM | – |
| CC(C)(C)C(=O)NCCc1ccn(-c2ccccc2)n1 | – | – | – | pIC50 (Trypanosoma brucei): 5.66 and 5.649; IC50 (Trypanosoma brucei): 2.22 µM |
| c1ccc(N2CCOCC3(CCCN(c4nccs4)C3)C2)nc1 (stereo not given) | – | – | > 100 µM | IC50 [4]: > 100 µM |
| NCC1Cc2cc(-c3nccc(N4CCC(O)CC4)n3)cc(Cl)c2O1 (stereo not given) | – | 20.9 µM and 21 µM | 48.1 µM and 22.3 µM | pIC50 (Plasmodium falciparum): 6.303; IC50 (Plasmodium falciparum): 0.545 µM; IC50 [8]: > 30.2 µM |
| CCCn1cc(NC(=O)c2ccc(S(C)(=O)=O)cc2)ccc1=O | > 50.1 | 1.71 µM and 0.847 µM and 0.944 µM and 1.37 µM | 21.5 µM and 19.6 µM | – |
| Cn1cc(NC(=O)N2CCC(Cc3ccccc3)CC2)ccc1=O | – | 6.79 µM and 5.48 µM | 3.14 µM and 2.52 µM | IC50 [3]: > 100 µM |
| COc1ccc(CNC(=O)Nc2ccc(=O)n(C)c2)cc1 | > 50.1 | 1.74 µM and 2.25 µM and 1.76 µM and 2.08 µM | 5.8 µM and 5.68 µM | – |
| NCC1CCN(C2CCN(c3ccc(-c4ccco4)cc3)CC2)C1 (stereo not given) | – | 25.6 µM and 22.1 µM | 25.1 µM and 18.7 µM | pIC50 (Plasmodium falciparum): 6.504; IC50 (Plasmodium falciparum): 0.343 µM; IC50 [5]: 11.7 µM; IC50 [9]: 3.86 µM |
| CCOC1CCN(C(=O)Nc2ccc(=O)n(C)c2)CC1 | – | 0.995 µM and 1.6 µM and 2.46 µM and 3.11 µM | 23.9 µM and 23.3 µM | IC50 [3]: > 100 µM |
